{"source": "patent US10202361B2", "about": "“Pyridazinones as herbicides” (E I DU PONT DE NEMOURS AND COMPANY, priority 2014, dated 2019)", "test_in_all_cases": "Test D pre-/postemergence controlled growth environment herbicide test", "format_in_all_cases": "in vivo", "conditions_in_all_cases": "scale 0 to 100", "key": {"[1]": {"test_system": "barley, spring (spring barley, Hordeum vulgare)", "summary_of_the_method": "(§1)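 Herbicidal effect, both preemergence (silt loam soil) and postemergence (1- to 4-leaf plants, peat-based medium), was scored 14–21 d post-treatment on a 0–100 control scale relative to untreated plants; applications used a non-phytotoxic solvent formulation with surfactant.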"}, "[2]": {"test_system": "barley, winter (winter barley, Hordeum vulgare)", "summary_of_the_method": "as §1"}, "[3]": {"test_system": "bluegrass (annual bluegrass, Poa annua)", "summary_of_the_method": "as §1"}, "[4]": {"test_system": "buckwheat, wild (wild buckwheat, Polygonum convolvulus)", "summary_of_the_method": "as §1"}, "[5]": {"test_system": "canarygrass (Phalaris minor)", "summary_of_the_method": "as §1"}, "[6]": {"test_system": "chamomile (scentless chamomile, Matricaria inodora)", "summary_of_the_method": "as §1"}, "[7]": {"test_system": "deadnettle (henbit deadnettle, Lamium amplexicaule)", "summary_of_the_method": "as §1"}, "[8]": {"test_system": "downy bromegrass (Bromus tectorum)", "summary_of_the_method": "as §1"}, "[9]": {"test_system": "field poppy (Papaver rhoeas)", "summary_of_the_method": "as §1"}, "[10]": {"test_system": "radish, wild (wild radish, Raphanus raphanistrum)", "summary_of_the_method": "as §1"}, "[11]": {"test_system": "speedwell (bird's-eye speedwell, Veronica persica)", "summary_of_the_method": "as §1"}}}
{"compound": "Cc1cc(=O)n(-c2ccc(F)cc2)nc1Oc1ccnc(C(F)(F)F)c1", "note": "[Compound 14, 2-(4-fluorophenyl)-5-methyl-6-[[2-(trifluoromethyl)-4-pyridinyl]oxy]-3 (2H)-pyridazinone]", "values": [{"measurement": "Plant response rating", "setting": "[1]; Postemergence, 16 g ai/ha", "value": 5}, {"measurement": "Plant response rating", "setting": "[1]; Postemergence, 31 g ai/ha", "value": 10}, {"measurement": "Plant response rating", "setting": "[1]; Postemergence, 62 g ai/ha", "value": 15}, {"measurement": "Plant response rating", "setting": "[1]; Postemergence, 125 g ai/ha", "value": 20}, {"measurement": "Plant response rating", "setting": "[1]; Postemergence, 250 g ai/ha", "value": 20}, {"measurement": "Plant response rating", "setting": "[1]; Preemergence, 16 g ai/ha", "value": 5}, {"measurement": "Plant response rating", "setting": "[1]; Preemergence, 31 g ai/ha", "value": 10}, {"measurement": "Plant response rating", "setting": "[1]; Preemergence, 62 g ai/ha", "value": 5}, {"measurement": "Plant response rating", "setting": "[1]; Preemergence, 125 g ai/ha", "value": 15}, {"measurement": "Plant response rating", "setting": "[1]; Preemergence, 250 g ai/ha", "value": 5}, {"measurement": "Plant response rating", "setting": "[2]; Postemergence, 16 g ai/ha", "value": 10}, {"measurement": "Plant response rating", "setting": "[2]; Postemergence, 31 g ai/ha", "value": 15}, {"measurement": "Plant response rating", "setting": "[2]; Postemergence, 62 g ai/ha", "value": 20}, {"measurement": "Plant response rating", "setting": "[2]; Postemergence, 125 g ai/ha", "value": 20}, {"measurement": "Plant response rating", "setting": "[2]; Postemergence, 250 g ai/ha", "value": 25}, {"measurement": "Plant response rating", "setting": "[2]; Preemergence, 16 g ai/ha", "value": 15}, {"measurement": "Plant response rating", "setting": "[2]; Preemergence, 31 g ai/ha", "value": 5}, {"measurement": "Plant response rating", "setting": "[2]; Preemergence, 62 g ai/ha", "value": 5}, {"measurement": "Plant response rating", "setting": "[2]; Preemergence, 125 g ai/ha", "value": 5}, {"measurement": "Plant response rating", "setting": "[2]; Preemergence, 250 g ai/ha", "value": 5}, {"measurement": "Plant response rating", "setting": "[3]; Postemergence, 16 g ai/ha", "value": 15}, {"measurement": "Plant response rating", "setting": "[3]; Postemergence, 31 g ai/ha", "value": 20}, {"measurement": "Plant response rating", "setting": "[3]; Postemergence, 62 g ai/ha", "value": 20}, {"measurement": "Plant response rating", "setting": "[3]; Postemergence, 125 g ai/ha", "value": 15}, {"measurement": "Plant response rating", "setting": "[3]; Postemergence, 250 g ai/ha", "value": 30}, {"measurement": "Plant response rating", "setting": "[3]; Preemergence, 16 g ai/ha", "value": 5}, {"measurement": "Plant response rating", "setting": "[3]; Preemergence, 31 g ai/ha", "value": 0}, {"measurement": "Plant response rating", "setting": "[3]; Preemergence, 62 g ai/ha", "value": 0}, {"measurement": "Plant response rating", "setting": "[3]; Preemergence, 125 g ai/ha", "value": 10}, {"measurement": "Plant response rating", "setting": "[3]; Preemergence, 250 g ai/ha", "value": 35}, {"measurement": "Plant response rating", "setting": "[4]; Postemergence, 16 g ai/ha", "value": 55}, {"measurement": "Plant response rating", "setting": "[4]; Postemergence, 31 g ai/ha", "value": 55}, {"measurement": "Plant response rating", "setting": "[4]; Postemergence, 62 g ai/ha", "value": 75}, {"measurement": "Plant response rating", "setting": "[4]; Postemergence, 125 g ai/ha", "value": 70}, {"measurement": "Plant response rating", "setting": "[4]; Postemergence, 250 g ai/ha", "value": 70}, {"measurement": "Plant response rating", "setting": "[4]; Preemergence, 16 g ai/ha", "value": 15}, {"measurement": "Plant response rating", "setting": "[4]; Preemergence, 31 g ai/ha", "value": 15}, {"measurement": "Plant response rating", "setting": "[4]; Preemergence, 62 g ai/ha", "value": 25}, {"measurement": "Plant response rating", "setting": "[4]; Preemergence, 125 g ai/ha", "value": 25}, {"measurement": "Plant response rating", "setting": "[4]; Preemergence, 250 g ai/ha", "value": 100}, {"measurement": "Plant response rating", "setting": "[5]; Postemergence, 16 g ai/ha", "value": 15}, {"measurement": "Plant response rating", "setting": "[5]; Postemergence, 31 g ai/ha", "value": 15}, {"measurement": "Plant response rating", "setting": "[5]; Postemergence, 62 g ai/ha", "value": 15}, {"measurement": "Plant response rating", "setting": "[5]; Postemergence, 125 g ai/ha", "value": 20}, {"measurement": "Plant response rating", "setting": "[5]; Postemergence, 250 g ai/ha", "value": 25}, {"measurement": "Plant response rating", "setting": "[5]; Preemergence, 16 g ai/ha", "value": 5}, {"measurement": "Plant response rating", "setting": "[5]; Preemergence, 31 g ai/ha", "value": 5}, {"measurement": "Plant response rating", "setting": "[5]; Preemergence, 62 g ai/ha", "value": 20}, {"measurement": "Plant response rating", "setting": "[5]; Preemergence, 125 g ai/ha", "value": 35}, {"measurement": "Plant response rating", "setting": "[5]; Preemergence, 250 g ai/ha", "value": 80}, {"measurement": "Plant response rating", "setting": "[6]; Postemergence, 16 g ai/ha", "value": 5}, {"measurement": "Plant response rating", "setting": "[6]; Postemergence, 31 g ai/ha", "value": 10}, {"measurement": "Plant response rating", "setting": "[6]; Postemergence, 62 g ai/ha", "value": 10}, {"measurement": "Plant response rating", "setting": "[6]; Postemergence, 125 g ai/ha", "value": 20}, {"measurement": "Plant response rating", "setting": "[6]; Postemergence, 250 g ai/ha", "value": 25}, {"measurement": "Plant response rating", "setting": "[6]; Preemergence, 16 g ai/ha", "value": 5}, {"measurement": "Plant response rating", "setting": "[6]; Preemergence, 31 g ai/ha", "value": 10}, {"measurement": "Plant response rating", "setting": "[6]; Preemergence, 62 g ai/ha", "value": 25}, {"measurement": "Plant response rating", "setting": "[6]; Preemergence, 125 g ai/ha", "value": 85}, {"measurement": "Plant response rating", "setting": "[6]; Preemergence, 250 g ai/ha", "value": 80}, {"measurement": "Plant response rating", "setting": "[7]; Postemergence, 16 g ai/ha", "value": 50}, {"measurement": "Plant response rating", "setting": "[7]; Postemergence, 31 g ai/ha", "value": 60}, {"measurement": "Plant response rating", "setting": "[7]; Postemergence, 62 g ai/ha", "value": 60}, {"measurement": "Plant response rating", "setting": "[7]; Postemergence, 125 g ai/ha", "value": 65}, {"measurement": "Plant response rating", "setting": "[7]; Postemergence, 250 g ai/ha", "value": 80}, {"measurement": "Plant response rating", "setting": "[7]; Preemergence, 16 g ai/ha", "value": 60}, {"measurement": "Plant response rating", "setting": "[7]; Preemergence, 31 g ai/ha", "value": 15}, {"measurement": "Plant response rating", "setting": "[7]; Preemergence, 62 g ai/ha", "value": 40}, {"measurement": "Plant response rating", "setting": "[7]; Preemergence, 125 g ai/ha", "value": 65}, {"measurement": "Plant response rating", "setting": "[7]; Preemergence, 250 g ai/ha", "value": 100}, {"measurement": "Plant response rating", "setting": "[8]; Postemergence, 16 g ai/ha", "value": 10}, {"measurement": "Plant response rating", "setting": "[8]; Postemergence, 31 g ai/ha", "value": 10}, {"measurement": "Plant response rating", "setting": "[8]; Postemergence, 62 g ai/ha", "value": 10}, {"measurement": "Plant response rating", "setting": "[8]; Postemergence, 125 g ai/ha", "value": 20}, {"measurement": "Plant response rating", "setting": "[8]; Postemergence, 250 g ai/ha", "value": 20}, {"measurement": "Plant response rating", "setting": "[8]; Preemergence, 16 g ai/ha", "value": 0}, {"measurement": "Plant response rating", "setting": "[8]; Preemergence, 31 g ai/ha", "value": 0}, {"measurement": "Plant response rating", "setting": "[8]; Preemergence, 62 g ai/ha", "value": 0}, {"measurement": "Plant response rating", "setting": "[8]; Preemergence, 125 g ai/ha", "value": 0}, {"measurement": "Plant response rating", "setting": "[8]; Preemergence, 250 g ai/ha", "value": 0}, {"measurement": "Plant response rating", "setting": "[9]; Postemergence, 16 g ai/ha", "value": 75}, {"measurement": "Plant response rating", "setting": "[9]; Postemergence, 31 g ai/ha", "value": 20}, {"measurement": "Plant response rating", "setting": "[9]; Postemergence, 62 g ai/ha", "value": 75}, {"measurement": "Plant response rating", "setting": "[9]; Postemergence, 125 g ai/ha", "value": 50}, {"measurement": "Plant response rating", "setting": "[9]; Postemergence, 250 g ai/ha", "value": 80}, {"measurement": "Plant response rating", "setting": "[9]; Preemergence, 16 g ai/ha", "value": 95}, {"measurement": "Plant response rating", "setting": "[9]; Preemergence, 31 g ai/ha", "value": 100}, {"measurement": "Plant response rating", "setting": "[9]; Preemergence, 62 g ai/ha", "value": 100}, {"measurement": "Plant response rating", "setting": "[9]; Preemergence, 125 g ai/ha", "value": 100}, {"measurement": "Plant response rating", "setting": "[9]; Preemergence, 250 g ai/ha", "value": 100}, {"measurement": "Plant response rating", "setting": "[10]; Postemergence, 16 g ai/ha", "value": 40}, {"measurement": "Plant response rating", "setting": "[10]; Postemergence, 31 g ai/ha", "value": 80}, {"measurement": "Plant response rating", "setting": "[10]; Postemergence, 62 g ai/ha", "value": 70}, {"measurement": "Plant response rating", "setting": "[10]; Postemergence, 125 g ai/ha", "value": 75}, {"measurement": "Plant response rating", "setting": "[10]; Postemergence, 250 g ai/ha", "value": 80}, {"measurement": "Plant response rating", "setting": "[10]; Preemergence, 16 g ai/ha", "value": 100}, {"measurement": "Plant response rating", "setting": "[10]; Preemergence, 31 g ai/ha", "value": 100}, {"measurement": "Plant response rating", "setting": "[10]; Preemergence, 62 g ai/ha", "value": 100}, {"measurement": "Plant response rating", "setting": "[10]; Preemergence, 125 g ai/ha", "value": 100}, {"measurement": "Plant response rating", "setting": "[10]; Preemergence, 250 g ai/ha", "value": 100}, {"measurement": "Plant response rating", "setting": "[11]; Postemergence, 16 g ai/ha", "value": 100}, {"measurement": "Plant response rating", "setting": "[11]; Postemergence, 31 g ai/ha", "value": 100}, {"measurement": "Plant response rating", "setting": "[11]; Postemergence, 62 g ai/ha", "value": 100}, {"measurement": "Plant response rating", "setting": "[11]; Postemergence, 125 g ai/ha", "value": 100}, {"measurement": "Plant response rating", "setting": "[11]; Postemergence, 250 g ai/ha", "value": 100}, {"measurement": "Plant response rating", "setting": "[11]; Preemergence, 250 g ai/ha", "value": 100}]}
